Columns and labels:
rat [1] = conditions: Sub-acute repeat dose toxicity; Oral; Gavage/Intubation; dose end: 10 day; group: systemic; systemic / in life observation / clinical signs / compulsive biting or licking + systemic / in life observation / clinical signs / …
dog [2] = conditions: Sub-acute repeat dose toxicity, beagle, Oral, Gavage/Intubation, dose end: 10 day, group: systemic
rat [3] = conditions: Sub-acute repeat dose toxicity, sprague dawley, Oral, Gavage/Intubation, dose end: 13 day, group: systemic
dog [4] = conditions: Sub-acute repeat dose toxicity, beagle, Oral, Gavage/Intubation, dose end: 7 day, group: systemic
rat [5] = conditions: Sub-acute repeat dose toxicity, sprague dawley, Oral, Gavage/Intubation, dose end: 29 day, group: systemic
dog [6] = conditions: Sub-acute repeat dose toxicity; beagle; Oral; Gavage/Intubation; dose end: 29 day; group: systemic; systemic / in life observation / clinical signs / defecation (diarrhea) + systemic / in life observation / clinical signs / emesis + …
dog [7] = conditions: Sub-acute repeat dose toxicity, beagle, Oral, Gavage/Intubation, dose end: 1 month, group: systemic
rat [8] = conditions: Subchronic oral toxicity in rodents, fischer, Gavage/Intubation, dose end: 13 week, group: systemic
mouse = conditions: Subchronic oral toxicity in rodents, b6c3f1, Gavage/Intubation, dose end: 13 week, group: systemic
rat [9] = conditions: Carcinogenicity, fischer, Oral, Gavage/Intubation, dose end: 103 week, group: systemic
rabbit = conditions: Prenatal developmental toxicity study; new zealand white; Dermal; Topical; dose end: 18 GD; group: maternal; systemic / in life observation / clinical signs / [other]
rat [10] = conditions: Prenatal developmental toxicity study, long evans, Oral, Gavage/Intubation, dose end: 15 GD
rat [11] = conditions: Prenatal developmental toxicity study; sprague dawley; Dermal; Topical; dose end: 15 GD; group: maternal; systemic / in life observation / body weight / body weight gain + systemic / in life observation / clinical signs / [other]
[12] = systemic / in life observation / body weight / body weight + systemic / in life observation / clinical signs / altered breathing rate + …
[13] = systemic / in life observation / clinical signs / salivation + systemic / in life observation / clinical signs / emesis
[14] = systemic / in life observation / body weight / body weight + systemic / in life observation / clinical signs / lacrimation + systemic / in …
[15] = systemic / organ weight / kidney / absolute + systemic / organ weight / liver / absolute + systemic / organ weight / spleen / absolute + …
[16] = systemic / in life observation / body weight / body weight + systemic / in life observation / food consumption / food consumption + systemic…
[17] = systemic / in life observation / clinical signs / emesis
[18] = systemic / in life observation / clinical signs / salivation + systemic / organ weight / liver / absolute + systemic / in life observation…
[19] = systemic / in life observation / clinical signs / defecation (diarrhea) + systemic / in life observation / clinical signs / feces, …
[20] = systemic / in life observation / clinical signs / feces, discoloration
[21] = systemic / in life observation / clinical signs / defecation (diarrhea) + systemic / in life observation / clinical signs / lethargy + …
[22] = systemic / in life observation / mortality / mortality + systemic / pathology microscopic / kidney / degeneration + systemic / pathology …
[23] = systemic / pathology microscopic / kidney / hyperplasia + systemic / pathology microscopic / kidney / nephropathy
[24] = systemic / pathology microscopic / kidney / hyperplasia + systemic / pathology microscopic / kidney / nephropathy + systemic / in life …
[25] = group: developmental, developmental / developmental malformation / bone / irregular ossification + developmental / developmental malformation / general / runts + …
[26] = group: developmental, developmental / developmental malformation / bone / irregular ossification + developmental / developmental malformation / kidney / …
[27] = group: maternal, systemic / in life observation / clinical signs / [other] + systemic / in life observation / clinical signs / hyperactivity + reproductive…

Molecule `CC(N)c1cc(F)ccc1Oc1ccc(Cl)c(Cl)c1` (stereo unspecified) has an LEL (rat [1]) of 3 mg/kg/day, an LOAEL (rat [1]) of over 150 mg/kg/day and an NEL (rat [1]) of under 3 mg/kg/day. For the same molecule, the NOAEL (rat [1]) was at least 150 mg/kg/day, the LOAEL (dog [2]; [12]) was over 100 mg/kg/day and the NOAEL (dog [2]; [12]) was at least 100 mg/kg/day. For the same molecule, the LEL (dog [2]; [13]) was 3 mg/kg/day and the NEL (dog [2]; [13]) was under 3 mg/kg/day.

Molecule `CN[C@H]1CC[C@@H](c2ccc(Cl)c(Cl)c2)c2ccc(S(N)(=O)=O)cc21` has an LOAEL (rat [3]; [14]) of over 320 mg/kg/day, an NOAEL (rat [3]; [14]) of at least 320 mg/kg/day and an LEL (rat [3]; [15]) of 40 mg/kg/day. It also gave an NEL (rat [3]; [15]) of under 40 mg/kg/day, an LOAEL (dog [4]; [16]) of over 160 mg/kg/day and an NOAEL (dog [4]; [16]) of at least 160 mg/kg/day. For the same molecule, the LEL (dog [4]; [17]) was 40 mg/kg/day, the NEL (dog [4]; [17]) was 20 mg/kg/day and the NEL (rat [5]; systemic / in life observation / clinical signs / salivation + systemic / organ weight / liver / absolute) was 20 mg/kg/day. It also gave an LEL (rat [5]; [18]) of 60 mg/kg/day, an LOAEL (rat [5]; [18]) of over 60 mg/kg/day and an NOAEL (rat [5]; [18]) of at least 60 mg/kg/day. For the same molecule, the LEL (dog [6]) was 5 mg/kg/day, the LOAEL (dog [6]) was over 60 mg/kg/day and the NEL (dog [6]) was under 5 mg/kg/day. The NOAEL (dog [6]) was at least 60 mg/kg/day.

`COc1ccc(C(=O)Nc2nc3ccccc3c(NCc3ccccc3)c2C#N)cc1` gave an LOAEL (dog [7]; [19]) of 1500 mg/kg/day, an NOAEL (dog [7]; [19]) of 750 mg/kg/day and an LEL (dog [7]; [20]) of 300 mg/kg/day. For the same molecule, the NEL (dog [7]; [20]) was under 300 mg/kg/day.

Work on `Nc1cc([N+](=O)[O-])ccc1O` [2-Amino-4-nitrophenol] yielded an LOAEL (rat [8]; [21]) of over 1000 mg/kg/day, an NEL (rat [8]; [21]) of 125 mg/kg/day and an NOAEL (rat [8]; [21]) of at least 1000 mg/kg/day. It also gave an LEL (rat [8]; systemic / organ weight / liver / absolute) of 250 mg/kg/day, an LEL (mouse; systemic / in life observation / mortality / mortality) of 500 mg/kg/day and an LOAEL (mouse; [22]) of over 1000 mg/kg/day. For the same molecule, the NEL (mouse; [22]) was 250 mg/kg/day, the NOAEL (mouse; [22]) was at least 1000 mg/kg/day and the LOAEL (rat [9]; [23]) was 125 mg/kg/day. The NOAEL (rat [9]; [23]) was under 125 mg/kg/day, the LEL (rat [9]; [24]) was 125 mg/kg/day and the NEL (rat [9]; [24]) was under 125 mg/kg/day.

For `NCCO` [Ethanolamine], the LEL (rabbit) was 75 mg/kg/day, the LOAEL (rabbit) was over 75 mg/kg/day and the NEL (rabbit) was 25 mg/kg/day. The NOAEL (rabbit) was at least 75 mg/kg/day, the LOAEL (rat [10]; [25]) was over 500 mg/kg/day and the NOAEL (rat [10]; [25]) was at least 500 mg/kg/day. It also gave an LEL (rat [10]; [26]) of 50 mg/kg/day, an NEL (rat [10]; [26]) of under 50 mg/kg/day and an NEL (rat [10]; group: maternal, systemic / in life observation / clinical signs / [other] + systemic / in life observation / clinical signs / hyperactivity) of 300 mg/kg/day. For the same molecule, the LEL (rat [10]; [27]) was 500 mg/kg/day, the LOAEL (rat [10]; [27]) was over 500 mg/kg/day and the NOAEL (rat [10]; [27]) was at least 500 mg/kg/day. For the same molecule, the LEL (rat [11]) was 225 mg/kg/day, the LOAEL (rat [11]) was over 225 mg/kg/day and the NEL (rat [11]) was 75 mg/kg/day. It also gave an NOAEL (rat [11]) of at least 225 mg/kg/day.

Reference: EPA's ToxRefDB 2
